From patent US12453740B2, “Nucleic acids for cell recognition and integration” (Emory University, priority 2018, dated 2025)

Legend:
[1] = test system: chromosomes of plasma cells; test: Incorporation of labeled ctDNA into chromosomes with NHEJ, PARP and integrase inhibitors (Example 6); type: cell-based, human; conditions: DNA-PKCS inhibitor I 200 nM; KU-55933; raltegravir 30 nM; NU1025 200 nM
Description: For further evaluation, chromosome spreads from MM and lung cancer cell lines were cultured with covalently labeled ctDNA obtained from patients with MM.

[2] = test system: MM (MM1S), PC (ASPC-1), and CC (HCT 116) cell lines; test: ctDNA integration with NHEJ, alternative pathway and transposase inhibitors (Example 25); type: cell-based, human; conditions: 2 hours pretreatment; DNA-PKCS inhibitor I 30 μM, KU-55933 10 μM, raltegravir 100 nM; compared to control or NU1025 200 μM
Description: About 10^6 MM1s, PANC1 and HCT-116 cells were treated for 2 hours with inhibitors of the non-homologous end join (NHEJ) repair system such as KU-55933 (ATM inhibitor, 10 μM) and DNA-PKCS inhibitor I, (30 μM), alternative repair pathway such as a poly ADP ribose polymerase inhibitor NU1025 (PARP, 200 μM) and an integrase/transposase inhibitor (raltegravir, 100 nM). After treatment with inhibitors, rhodamine-labeled ctDNA construct was added to the culture media for 24 hours. Cells were then arrested, and chromosome spreads were obtained as noted above. Integration site counts per cell were obtained after counting a minimum of 20 metaphases (FIG. 32).
Transposable elements (TEs) can play an important role in the mechanism of HGT observed in prokaryotes and few cases of eukaryotes (insects and plants). Thus, it was investigated whether inhibition of transposable elements could reduce or prevent ctDNA integration into chromatids. To that end, cells were treated for 2 hours with raltegravir, a transposase inhibitor, before the addition of ctDNA into culture media. For controls, inhibitors of ATM (KU-55933), DNPkc (DNA-PKCS inhibitor I) and PARP (NU1025) were used. […]

Structure (SMILES)	Incorporation of labeled ctDNA into chromosomes [1]	integration of ctDNA (rhodamine bands into the chromosomes) [2]
O=c1cc(-c2cccc3c2Sc2ccccc2S3)oc(N2CCOCC2)c1 [KU-55933]	reduced significantly	significantly reduced
Cc1nc2c(O)cccc2c(=O)[nH]1 [NU1025]	less so	–
Cc1nnc(C(=O)NC(C)(C)c2nc(C(=O)NCc3ccc(F)cc3)c(O)c(=O)n2C)o1 [raltegravir]	reduced significantly	significantly reduced
